Results taken from patent US10543159B2, “Hair papilla cell activator” (Ezaki Glico Co., Ltd., priority 2014, dated 2020).

Tested on: Wnt5a
Assay: Quantitative PCR gene expression in follicle dermal papilla cells: Wnt5a
Format: cell-based, human
Conditions: Example 3: 0.25% POs-Ca (R) or CaCl2 of equivalent calcium, DMEM, 37° C., 5 hours; Dunnett, n=6
Description: (1) 500 μl of a special medium in which 4×10^4 cells/ml of follicle dermal papilla cells were suspended was dispensed into a type I collagen-coated 24-well cell culture plate (Corning), and cultured at a cell density of 1.0×10^4 cells/cm^2 at 37° C. for 42 hours. […] Each of the solutions (a) to (c) was mixed with DMEM high glucose (Sigma, USA) at a ratio of 1:9.
(3) The medium was aspirated from each well obtained in (1), the well was washed by adding 1 ml of 1×PBS (137 mM NaCl, 8.1 mM Na2HPO4, 2.68 mM KCl, 1.47 mM KH2PO4 (pH 7.4); Wako Pure Chemical Industries, Ltd.), and aspirating the PBS, 500 μl of DMEM high glucose was added, and the cells were incubated in a CO2 incubator at 37° C. for 5 hours. […]
(4) The medium was removed from each well, and then mRNA was extracted using CellAmp Direct RNA Prep Kit for RT-PCR (Takara). The method was performed in accordance with the manual for the kit.
(5) 8 μl of the extracted mRNA solution (200 μl for each well) was used, and cDNA was obtained by the reverse transcription reaction at a scale of 40 μl, using PrimeScript RT Master Mix (Takara). The reaction conditions were as set forth in the manual for the kit.
(6) 0.5 μl of each of cDNA solutions diluted 2-fold with water, 1 μl of a solution containing 4 μM of each of primers 1 and 2 for each of the genes shown in Table 2, 5 μl of SYBR Premix Ex Taq II (Takara), and 3.5 μl of water were added, and quantitative PCR was performed on each of the genes. Using CFX96 Touch (BIO-RAD, USA), denaturation treatment at 95° C. for 30 seconds was performed, and then a two-step cycle at 95° C. for 5 seconds and at 62° C. for 20 seconds was performed for 65 cycles. Fluorescence intensity after each cycle was measured.
(7) Using PGK1 and GAPDH as reference genes, a comparative analysis of expression levels was performed with the analysis software (Bio-Rad CFX Manager 3.0) included in CFX96Touch. Relative expression levels were calculated under the default conditions of the software. […]

O.O.[Ca+2].[Cl-].[Cl-] [CaCl2, calcium chloride dihydrate]
expression of Wnt5a gene compared to control: significant increases in the expression of genes were not observed
